The text below walks through data of patent US20090035270A1, “COMBINATION THERAPY USING ANTI-ANGIOGENIC AGENTS AND TNF alpha” (priority 2001, published 2009).

Holding throughout (format): cell-based, human
In one test the test system is ICAM-1 expression. The test is described as follows: Flow cytometry of ICAM-1 cell surface expression induced by TNF in HUVEC. The conditions noted are these: HUVEC treated with TNF. The method, then:
Activation of the nuclear factor-κB (NF-κB) promotes survival of cells exposed to TNF (Beg & Baltimore, Science 274, 782-784; Van Antwerp et al., Science 274, 787-789 (1996)). Since cell adhesion via integrins activates NF-κB (Scatena et al., J. Cell Biol. 141, 1083-1093 (1998)), we investigated whether the sensitivity of spheroids to TNF-induced apoptosis was due to lack of NF-κB activation. NF-κB activation was assessed by measuring I-κB phosphorylation and degradation, NF-κB nuclear translocation and cell surface expression of ICAM-1, an NF-κB-induced gene (Collins et al., Faseb J. 9, 899-909. (1995)), in spheroid and fibronectin-adherent HUVEC cultures exposed to TNF±IFNγ.
Aktmp suppresses TNF-induced apoptosis of spheroids in the presence of active NF-κB. We also tested whether both NF-κB activation and active Akt signaling were required for the survival, or whether active Akt alone was sufficient. […]
Indirect immunostaining of HUVEC and EGFP expression were performed following standard protocol (Ruegg et al., I.c.). […] Ail samples were analyzed with a FACScan II® and Cell Quest® software (Becton Dickinson, Mountain View Calif., USA).
In general terms: A flow cytometer gives signals particle by particle.

Test [1] concerns HUVEC. Kind of test: Detection of apoptotic HUVEC in culture (YoPro-1 staining). The conditions noted are these: spheroids; TNF±IFNγ. How it is done: To test whether integrins modulate TNF-induced apoptosis, we cultured HUVEC on fibronectin (integrin-dependent adhesion) or as spheroids (integrin-independent adhesion) in the absence or presence of TNF (200 ng/ml) and of IFNγ (330 ng/ml), an enhancer of TNF cytotoxicity (Dealtry et al., Eur. J. Immunol. 17, 689-693 (1987)). […] In contrast, spheroids treated with TNF±IFNγ increased uptake of YoPro-1 (an increase suppressed by caspase inhibitors BOC, Z-VAD, IETD and DVED), DNA fragmentation, caspase-3 activation and cleavage of PARP (FIG. 2a, 2b and data not shown). To examine the effect of TNF±IFNγ on cell survival we determined the viability of untreated and treated cultures. […] Treatment with IFNγ alone was not cytotoxic (data not shown). HUVEC adhere to immobilized fibronectin via αVβ3 and α5β1 integrins (Rüegg et al., Nature Med. 4, 408-414 (1998)). To test for the individual contribution of these integrins to cell survival on fibronectin, we cultured HUVEC on plastic-immobilized mAbs (imAbs) directed against αVβ3, α1, α5 and α4 integrins.
For morphological evaluation, spheroids were embedded in Epon (Fluka Chemie) and thick sections were stained with 1% Methylene/Azur blue. For immunostaining, frozen spheroid sections were fixed in 4% (Fluka Chemis, Buchs, Switzerland) formaldehyde. After blocking with 1% BSA, sections were sequentially incubated for 1 hour with primary mAb (20 μg/ml) and a Cyan3-labeled GaM antiserum (West Grove, Pa., USA). For the TUNEL reaction, frozen spheroids sections were fixed in 4% paraformaledhyde and processed as described (Ruegg et al., I.e.). Spherouids were countsrstained with propidium iodide for total DNA content. […] The apoptosis index was determined by calculating the ratio between the green (TUNEL staining of fragmented DNA) and red (propidium iodide staining by total DNA) pixels. Number of analyzed spheroids per condition were: C, 31; T, 21; TI, 12. […] Cultures were viewed by inverted fluorescence microscopy (Leica DM IRB, Heerbrugg, Switzerland). […]

Test [2] concerns HUVEC. The test is described as follows: HUVEC spheroid formation (aggregation) in BSA-coated wells. The conditions noted are these: mAbs 10 μg/ml, EDTA 5 mM, evaluated at 6 and 16 hours. The method, then:
To test the effect of integrin ligation on TNF-induced apoptosis we identified conditions where endothelial cells could be cultured without integrin-dependent adhesion. Single cell suspensions of endothelial cells rapidly die by anoikis (Meredith et al., Mol. Biol. Cell 4, 953-961 (1993)) thus precluding further analysis. But by seeding human umbilical vein endothelial cells (HUVEC) at high density (1.0×10^6 cells/ml) in BSA-coated wells multicellular spheroids formed within 2-4 hours, and could be maintained for over 24 hours dependent on VE-cadherin and without any detectable contribution from integrins.
HUVEC were collected by trypsinization, resuspended in complete medium at 1.0×10^6 cells/ml and 1 ml/well were seeded into 12 wells non-tissue culture plates (Evergreen Scientific, Los Angeles, Calif., USA) previously coated with 1% BSA. For aggregation studies, 200 μl of the cell suspension were seeded into 1% BSA-coated microwells of ELISA plates (Maxisorp II, NUNC, Roskilde, Denmark) alone or in the presence of mAbs (10 μg/ml), EDTA (5 mM) or Ca^2+/EDTA (10/5 mM). Spheroid formation was evaluated at 6 hours and 16 hours. Micrographs were take with a Televal 31 microscope (Cart Zeiss AG, Zürich; Switzerland).

For test [3], the system named is HUVEC. Kind of test: Death ligand cytotoxicity on fibronectin-cultured HUVEC with EMD121974 (viability). The conditions noted are these: EMD121974 300 μM, ligand 200 ng/ml, overnight. The method, then: FIG. 8. Decreased integrin ligation enhances TNF-, TRAIL- and FasL-induced cytotoxicity in vitro. HUVEC were cultured overnight on fibronectin coated microtiter plates in the absence (control) or presence of EMD121974 (300 μM), TNF (200 ng/ml), FasL (200 ng/ml), TRAIL (200 ng/ml), LIGHT (200 ng/ml), and IFNγ (330 ng/ml) as indicated. Viability was determined by MST assays.

Residues, ends and D or L forms follow the SMILES beside them. *: point of attachment. Cbz = O=C(OCc1ccccc1)*; CH2F = FC*

For `COC[C@H]1OC(=O)c2coc3c2[C@@]1(C)C1=C(C3=O)[C@@H]2CCC(=O)[C@@]2(C)C[C@H]1OC(C)=O` [wortmannin], in the test with ICAM-1 expression, the “inhibition of ICAM-1 expression induced by TNF” value is on record as “did not inhibit”.
Consider IETD, for which, in the test on HUVEC [1], the “effect of caspase inhibitor on increased YoPro-1 uptake of spheroids treated with TNF±IFNγ” value is on record as “suppressed”.
On to `O=C(O)CN(CCN(CC(=O)O)CC(=O)O)CC(=O)O` [EDTA], for which the HUVEC spheroid formation entry in the test on HUVEC [2] is “blocked spheroid formation”.
Consider `O=c1cc(N2CCOCC2)oc2c(-c3ccccc3)cccc12` [LY294002], for which, in the test on ICAM-1 expression, the “inhibition of ICAM-1 expression induced by TNF” value was “did not inhibit”.
Consider `CC(NC(=O)C(NC(=O)OCc1ccccc1)C(C)C)C(=O)NC(CC(=O)O)C(=O)CF` (stereo not drawn) [Z-VAD] (Cbz-Val-Ala-Asp-CH2F; configuration not given here), for which, in the test with HUVEC [1], the “effect of caspase inhibitor on increased YoPro-1 uptake of spheroids treated with TNF±IFNγ” value is “suppressed”.

B1: FasL: death ligand of the TNF-ligand family (Fas ligand) (protein, UniProt P48023 130-281, looked up)
Tumor necrosis factor ligand …: QIGHPSPPPEKKELRKVAHLTGKSNSRSMPLEWEDTYGIVLLSGVKYKKGGLVINETGLYFVYSKVYFRGQSCNNLPLSHKVYMRNSKYPQDLVMMEGKMMSYCTTGQMWARSSYLGAVFNLTSADHLYVNVSELSLVNFEESQTFFGLYKL
For the molecule B1, the “sensitivity to pro-apoptotic effects of death ligand in the presence of EMD121974 (synergism with αVβ3-blockage)” value (“sensitivity to pro-apoptotic effects” for short) in the test on HUVEC [3] is recorded as “Increased sensitivity”.

B2: TRAIL: death ligand of the TNF-ligand family (protein, UniProt P50591 1-281, looked up)
Tumor necrosis factor ligand …: MAMMEVQGGPSLGQTCVLIVIFTVLLQSLCVAVTYVYFTNELKQMQDKYSKSGIACFLKEDDSYWDPNDEESMNSPCWQVKWQLRQLVRKMILRTSEETISTVQEKQQNISPLVRERGPQRVAAHITGTRGRSNTLSSPNSKNEKALGRKINSWESSRSGHSFLSNLHLRNGELVIHEKGFYYIYSQTYFRFQEEIKENTKNDKQMVQYIYKYTSYPDPILLMKSARNSCWSKDAEYGLYSIYQGGIFELKENDRIFVSVTNEHLIDMDHEASFFGAFLVG
On to B2, for which, in the test on HUVEC [3], the “sensitivity to pro-apoptotic effects” value was “Increased sensitivity”.

B3: LIGHT: ligand binding to receptors lacking a death domain (protein, UniProt O43557 83-240, looked up)
Tumor necrosis factor ligand …: LIQERRSHEVNPAAHLTGANSSLTGSGGPLLWETQLGLAFLRGLSYHDGALVVTKAGYYYIYSKVQLGGVGCPLGLASTITHGLYKRTPRYPEELELLVSQQSPCGRATSSSRVWWDSSFLGGVVHLEAGEKVVVRVLDERLVRLRDGTRSYFGAFMV
On to B3, for which the “sensitivity to pro-apoptotic effects” value in the test with HUVEC [3] is “no synergism”.
